Like-named read-outs stand apart in the source and are kept apart here. Square brackets hold non-standard residues; d marks the D form. Ends that are not written are not given here. Peptide text beside a SMILES is read from it. sY = N[C@@H](Cc1ccc(OS(=O)(=O)O)cc1)C(=O)O
How the values were obtained:
[1] = target: activated factor VIIIa (FVIIIa); assay: Surface acoustic wave (SAM5) binding of FIX(a) variants to immobilized activated factor VIIIa; conditions: for Kd: FVIIIa immobilized on dextran chip, SAM5 Blue surface acoustic wave, analyte 10-250 nM, 40 μL/min, 20 mM HEPES pH 7.5, 150 mM NaCl, 5 mM CaCl2, read-out: Kd, interaction with activated factor VIIIa
Method: pro‐FVIII was generously provided by Baxter Biosciences (Vienna, Austria). Human thrombin was purchased from Sigma. For activation, 100 μg FVIII lyophilisate was dissolved in ddH2O and spin‐dialysed by repeated concentration in 30 kDa cut‐off Amicon concentrators to a final concentration of ~ 0.2 mg·mL^−1. FVIII was activated by thrombin similar to protocols described elsewhere 11, 12. Briefly, thrombin was dissolved in 20 mM Hepes, pH 7.5, 100 mM NaCl and 5 mM CaCl2. 1 unit of thrombin was added to 1000 units of FVIII (100 μg) and incubated for 15 min at 37 °C without shaking. The protein mixture was then dialysed by in total four centrifugation steps against a 4 °C cold wash buffer consisting of 50 mM Hepes, pH 7.4, 300 mM NaCl and 2.5 mM CaCl2. The reaction was stopped after the second concentration step by adding 20 μL 50 mM PMSF to inhibit thrombin. The activation of FVIIIa was controlled by SDS/PAGE to observe the A1, A2 and A3‐C1‐C2 at ~55 kDa, 40 kDa and 70 kDa, respectively.
(§1) Prior to the chip calibration at 22 °C, the instrument was flushed with a flow rate of 40 μL·min^−1 for 5 to 10 min. Chip calibration was performed using the SAM5 program with gain of 180 and a phase difference of 0.363.
(§2) The SAM5 instrument with a dextran‐COOH‐coated gold chip (NanoTemper Technologies) was equilibrated using filtered and degassed PBS running buffer, and the chip was calibrated as described above. 1‐ethyl‐3‐(3‐dimethylaminopropyl) carbodiimide (EDC) and N‐hydroxysuccinimide (NHS) were dissolved in ddH2O to a final concentration of 400 mM and 100 mM, respectively. To activate the chip, EDC and NHS were mixed at equal volume, resulting in the final concentrations of 200 mM EDC and 50 mM NHS. The mixture was rapidly placed into position A1 of the tray holder. […]
(§3) Firstly, pumps were washed using filtered and degassed running buffer (20 mM HEPES pH 7.5, 150 mM NaCl, 5 mM CaCl2). […] The sensogram SAM5 data were exported to Origin and TraceDrawer, allowing to analyse and quantify the protein binding affinities, as described in the SAM5 user manual. […]

[2] = test system: coagulation factor VIII (nonactivated FVIII); assay: Surface acoustic wave (SAM5) binding of FIX(a) variants to immobilized factor VIII
Method: as §1
as §2, with “holder. If carried out properly, the baseline will increase. Subsequently, the ligand (protein ligands at 250–500 nM concentration, peptidic ligands at 100 μM to 1 mM concentration) was placed into the tray holder at position A1. The binding of the ligand to the dextran matrix is based on electrostatic interactions.” for “holder.”
as §3

[3] = test system: activation peptide of factor IX and factor X; conditions: cited from earlier work; for affinity towards activation peptide binding site relative to active site: factor IX and factor X
Excerpt: In the protease factors IX and X, proteolytic activation at Arg180 (FX: Arg194) and Arg145 releases an activation peptide, triggering a conformational disorder‐to‐order transition in the serine protease domain (Figs 2 and S1). The activation peptide is positioned between the light chain (consisting of the N‐terminal Gla, EGF1 and EGF2 domains) and the trypsin‐like serine protease domain. Light and heavy chains remain covalently linked via a disulfide bond. In both factor IX and factor X, the activation peptide harbours an intriguing high‐affinity binding site for benzamidine/arginine, exceedin ...

FIX wt = target: T1, FIX wt (Homo sapiens, UniProt P00740); assay: SAM5 binding of zymogenic FIX wt to immobilized FVIIIa-derived peptide; conditions: no additive; peptide immobilized on carboxymethyl-dextran chip, FIX wt 10-250 nM in mobile phase, 40 μL/min, 4 min association, 4 min dissociation, one-to-one two-state model; 20 mM HEPES pH 7.5, 150 mM NaCl, 5 mM CaCl2
T1 construct: made in house; host or cells: Escherichia coli
Method: (§4) Factor IX protein variants were expressed in Escherichia coli, refolded, purified and activated as described elsewhere 8, 9, 10.
(§5) The factor VIII‐derived peptides Ser558‐Gln565 (SVDQRGNQ) and Lys713‐Arg740 (KHTGDsYsYEDSsYEDISAYLLSKNNAIEPR; sY: sulfotyrosine) were purchased from JPT Peptide Technologies. Quality was controlled by HPLC and mass spectrometry and confirmed to be of better than 90% homogeneity.
as §1
as §2, with “NHS.” for “NHS. The mixture was rapidly placed into position A1 of the tray holder.”
as §3

FIXa wt = target: T2, FIXa wt (Homo sapiens, UniProt P00740); assay: SAM5 binding of activated FIXa wt to immobilized FVIIIa-derived peptide; conditions: no additive, FIXa wt as analyte 10-250 nM, pH 7.5, 5 mM CaCl2
T2 construct: made in house; host or cells: Escherichia coli
Method: as §4, §5, §1
as §2, with “NHS.” for “NHS. The mixture was rapidly placed into position A1 of the tray holder.”
(§6) Firstly, pumps were washed using filtered and degassed running buffer (20 mM HEPES pH 7.5, 150 mM NaCl, 5 mM CaCl2). […] The sensogram SAM5 data were exported to Origin and TraceDrawer, allowing to analyse and quantify the protein binding affinities, as described in the SAM5 user manual.

FIX‐R170L = target: T3, FIX‐R170L (Homo sapiens, UniProt P00740, R384L); assay: SAM5 binding of zymogenic FIX-R170L (Padua) to immobilized FVIIIa-derived peptide; conditions: no additive, FIX-R170L as analyte 10-250 nM, pH 7.5, 5 mM CaCl2
T3 construct: made in house; host or cells: Escherichia coli
Method: as §4, §5, §1
as §2, with “NHS.” for “NHS. The mixture was rapidly placed into position A1 of the tray holder.”
as §6

FIXa R170L = target: T4, FIXa R170L (Homo sapiens, UniProt P00740, R384L); assay: SAM5 binding of activated FIXa R170L (Padua) to immobilized FVIIIa-derived peptide; conditions: no additive, FIXa R170L as analyte 10-250 nM, pH 7.5, 5 mM CaCl2
T4 construct: made in house; host or cells: Escherichia coli
Method: as §4, §5, §1
as §2, with “NHS.” for “NHS. The mixture was rapidly placed into position A1 of the tray holder.”
as §6

T3 sequence (P00740 133-461 R384L limits assumed): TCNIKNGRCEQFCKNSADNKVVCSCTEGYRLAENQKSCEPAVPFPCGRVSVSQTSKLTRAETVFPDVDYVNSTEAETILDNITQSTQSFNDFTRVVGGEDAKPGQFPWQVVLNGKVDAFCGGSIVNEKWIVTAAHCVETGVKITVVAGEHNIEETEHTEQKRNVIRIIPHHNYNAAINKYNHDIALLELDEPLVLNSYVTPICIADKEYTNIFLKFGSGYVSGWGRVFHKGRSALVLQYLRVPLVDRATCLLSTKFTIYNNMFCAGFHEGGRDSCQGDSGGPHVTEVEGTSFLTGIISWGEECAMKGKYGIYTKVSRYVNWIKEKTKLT
T2 sequence (P00740 227-461 limits assumed): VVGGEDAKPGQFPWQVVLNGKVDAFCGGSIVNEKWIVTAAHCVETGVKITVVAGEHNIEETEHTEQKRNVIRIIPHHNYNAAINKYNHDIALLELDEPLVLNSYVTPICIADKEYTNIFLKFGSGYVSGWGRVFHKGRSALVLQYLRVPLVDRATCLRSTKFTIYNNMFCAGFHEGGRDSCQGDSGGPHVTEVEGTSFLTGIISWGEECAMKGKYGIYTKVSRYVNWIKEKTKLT
T2 sequence (P00740 47-191 partner limits assumed): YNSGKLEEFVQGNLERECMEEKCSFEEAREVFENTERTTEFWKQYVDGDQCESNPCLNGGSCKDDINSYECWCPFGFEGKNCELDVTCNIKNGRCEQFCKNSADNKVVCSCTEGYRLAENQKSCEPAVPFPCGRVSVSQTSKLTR
T1 sequence (P00740 29-461 limits assumed): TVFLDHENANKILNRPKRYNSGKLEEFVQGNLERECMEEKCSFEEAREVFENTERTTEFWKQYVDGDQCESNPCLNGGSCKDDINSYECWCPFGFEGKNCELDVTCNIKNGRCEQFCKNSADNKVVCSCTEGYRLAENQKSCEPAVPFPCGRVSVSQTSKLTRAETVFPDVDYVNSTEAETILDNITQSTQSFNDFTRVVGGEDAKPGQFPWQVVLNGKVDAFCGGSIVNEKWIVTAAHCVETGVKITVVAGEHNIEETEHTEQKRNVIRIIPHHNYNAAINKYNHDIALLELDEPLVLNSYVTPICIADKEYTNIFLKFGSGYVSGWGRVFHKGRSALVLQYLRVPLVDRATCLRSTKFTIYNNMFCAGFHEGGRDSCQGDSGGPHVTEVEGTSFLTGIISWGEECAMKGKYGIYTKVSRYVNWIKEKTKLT
T4 sequence (P00740 227-461 R384L): as the sequence (P00740 227-461 limits assumed) above, with R158L counted along it
T4 sequence (P00740 47-191 partner limits assumed): as the sequence (P00740 47-191 partner limits assumed) above

| Kd (FIX wt) [nM] | Kd (FIXa wt) [nM] | Kd (FIX‐R170L) [nM] | Kd (FIXa R170L) [nM] | Compound | affinity towards activation peptide binding site relative to active site [3] | other results |
| --- | --- | --- | --- | --- | --- | --- |
|  |  |  |  | FIX wt: recombinant zymogenic factor IX wild-type, expressed in Escherichia coli and refolded |  | Kd ([1]; analyte incubated with 1 μM aprotinin (BPTI)): 72.2 ± 60.2 nM; Kd ([1]; analyte incubated with 1 mM benzamidine): 83.6 ± 140 nM; higher affinity of zymogenic FIX wt than FIXa wt for activated factor VIIIa ([1]; in the presence of both benzamidine and BPTI): confirmed also when activated factor VIIIa was used as a binding partner; affinity to cofactor VIII relative to activated FIXa wt ([2]; FIX wt versus FIXa wt): more than 10 fold; Kd ([2]; analyte incubated with 1 μM aprotinin (BPTI), FVIII immobilized on dextran chip, SAM5 Blue surface acoustic wave, analyte 10-250 nM, 40 μL/min, 20 mM HEPES pH 7.5, 150 mM NaCl, 5 mM CaCl2, read-out: Kd, interaction with nonactivated factor VIII): 65.8 ± 21.2 nM |
|  |  |  |  | N=C(N)NCCC[C@H](N)C(=O)O [arginine] | exceeding the affinity towards the active site by an order of magnitude |  |
|  |  |  |  | N=C(N)c1ccccc1 [benzamidine] | exceeding the affinity towards the active site by an order of magnitude |  |
|  |  |  |  | basic pancreatic trypsin inhibitor [BPTI] |  | binding to activation peptide versus active site ([3]; factor IX/X, background statement, no reference given): do not bind to the activation peptide but to the active site exclusively |
| 172 ± 37.6 | 457 ± 121 | 173 ± 57.1 | 374 ± 138 | SVDQRGNQ [558‐loop, SVDQRGNQ] |  |  |
| 65.8 ± 23.5 | 98.9 ± 11.6 | 52.8 ± 9.75 | 103 ± 16.6 | CC[C@H](C)[C@H](NC(=O)[C@H](C)NC(=O)[C@H](CC(N)=O)NC(=O)[C@H](CC(N)=O)NC(=O)[C@H](CCCCN)NC(=O)[C@H](CO)NC(=O)[C@H](CC(C)C)NC(=O)[C@H](CC(C)C)NC(=O)[C@H](Cc1ccc(O)cc1)NC(=O)[C@H](C)NC(=O)[C@H](CO)NC(=O)[C@@H](NC(=O)[C@H](CC(=O)O)NC(=O)[C@H](CCC(=O)O)NC(=O)[C@H](Cc1ccc(OS(=O)(=O)O)cc1)NC(=O)[C@H](CO)NC(=O)[C@H](CC(=O)O)NC(=O)[C@H](CCC(=O)O)NC(=O)[C@H](Cc1ccc(OS(=O)(=O)O)cc1)NC(=O)[C@H](Cc1ccc(OS(=O)(=O)O)cc1)NC(=O)[C@H](CC(=O)O)NC(=O)CNC(=O)[C@@H](NC(=O)[C@H](Cc1c[nH]cn1)NC(=O)[C@@H](N)CCCCN)[C@@H](C)O)[C@@H](C)CC)C(=O)N[C@@H](CCC(=O)O)C(=O)N1CCC[C@H]1C(=O)N[C@@H](CCCNC(=N)N)C(=O)O [a2 peptide, KHTGDsYsYEDSsYEDISAYLLSKNNAIEPR] (H-KHTGD[sY][sY]EDS[sY]EDISAYLLSKNNAIEPR-OH) |  |  |

From publication PMC6668378, “Maturation of coagulation factor IX during Xase formation as deduced using factor VIII‐derived peptides” (FEBS Open Bio, 2019)
